Patent publication US20090163698A1, “Method for Preparing Antibody Conjugates” (priority 2007, published 2009)

Assays:
A375.S2 cells = assay: Binding and internalization study at 37° C., confocal microscopy; assay type: cell-based, human; conditions: 37° C. for 10 min, washed, incubated 1 hour at 37° C.
Procedure: A375.S2 cells were harvested by scraping and then resuspended to obtain individualized cells and rejuvenated for 1 hour, at 37° C. About 1 million cells of each tumor type were counted and distributed into individual centrifugation tubes. The tubes were spun to obtain a cell pellet.
For binding and internalization, the cells were treated with the targeted liposome formulation at 37° C. for 10 min with mild shaking (140 rpm). Cells were treated with the liposome formulations containing either a doxorubicin payload or a fluorescent marker (Dextran Alexa Fluor 488). Treatment was terminated by adding 1 mL of washing media (serum free), vortexing briefly, and centrifuging to recover a cell pellet The cells in the pellet were resuspend in washing media, vigorously shaken for 10 minutes at 37° C. and then centrifuged again (440 rpm). The cell pellet was left in 100 μL of media, an aliquot of 8 μL was taken and placed on a glass slide for observation under a confocal microscope.
Binding and internalization of the targeted liposomes to A375.S2 cells was evaluated after various incubation times of the cells and the liposome formulation.

murine αVβ3/5 integrin = conditions: cited from earlier work
Sequence of murine αVβ3/5 integrin (P43406 31-885 limits assumed): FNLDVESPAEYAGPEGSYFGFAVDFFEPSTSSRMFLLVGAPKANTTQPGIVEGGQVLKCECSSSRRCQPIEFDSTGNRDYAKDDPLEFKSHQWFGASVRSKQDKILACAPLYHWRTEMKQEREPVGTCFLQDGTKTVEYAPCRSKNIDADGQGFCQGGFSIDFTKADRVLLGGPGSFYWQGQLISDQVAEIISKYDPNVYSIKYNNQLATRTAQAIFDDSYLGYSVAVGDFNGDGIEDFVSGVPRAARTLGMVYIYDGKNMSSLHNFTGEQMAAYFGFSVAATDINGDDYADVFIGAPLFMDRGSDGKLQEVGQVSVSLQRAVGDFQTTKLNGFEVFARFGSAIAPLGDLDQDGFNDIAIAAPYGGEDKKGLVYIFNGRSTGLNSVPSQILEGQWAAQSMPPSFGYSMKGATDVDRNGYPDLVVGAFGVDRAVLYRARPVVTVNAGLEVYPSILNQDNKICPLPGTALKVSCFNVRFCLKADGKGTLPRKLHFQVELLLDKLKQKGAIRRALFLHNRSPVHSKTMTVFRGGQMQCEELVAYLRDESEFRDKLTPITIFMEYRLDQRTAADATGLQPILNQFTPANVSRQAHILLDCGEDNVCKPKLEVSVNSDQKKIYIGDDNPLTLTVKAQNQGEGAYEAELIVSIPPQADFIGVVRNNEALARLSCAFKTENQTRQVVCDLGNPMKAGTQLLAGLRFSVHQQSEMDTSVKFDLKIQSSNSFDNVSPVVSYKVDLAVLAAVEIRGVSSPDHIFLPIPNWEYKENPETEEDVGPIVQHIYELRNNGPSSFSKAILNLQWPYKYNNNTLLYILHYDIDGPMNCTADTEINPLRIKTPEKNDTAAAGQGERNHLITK
Sequence of murine αVβ3/5 integrin (P43406 887-1044 limits assumed): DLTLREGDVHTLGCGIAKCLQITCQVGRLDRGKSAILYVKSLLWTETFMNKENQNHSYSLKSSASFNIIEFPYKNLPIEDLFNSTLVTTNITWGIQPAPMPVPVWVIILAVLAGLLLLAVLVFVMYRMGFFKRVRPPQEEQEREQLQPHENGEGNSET

| Compound | Binding and internalization (confocal microscopy) (A375.S2 cells) | Binding to murine αVβ3/5 integrin (murine αVβ3/5 integrin) |
| --- | --- | --- |
| COc1cccc2c1C(=O)c1c(O)c3c(c(O)c1C2=O)C[C@@](O)(C(=O)CO)C[C@@H]3O[C@H]1C[C@H](N)[C@H](O)[C@H](C)O1 [free dox, doxorubicin] | drug internalization is evident |  |
| CNTO95: full-length human anti-alpha-V antibody of the IgG1k type, SEQ ID NO: 1 and SEQ ID NO: 2 |  | does not bind |
